Experimental findings from ChEMBL document CHEMBL4725268, “Anticonvulsant and analgesic in neuropathic pain activity in a group of new aminoalkanol derivatives” (Bioorg Med Chem Lett, 2020) are described below.

Calls of active or inactive are those of the source.

For data set [1], the system named is Mus musculus. The experiment in a line: Anticonvulsant activity in ip dosed albino mouse assessed as protection against 50 mA current-induced seizure by maximal electroshock seizure test. It counts as functional. In general terms: The maximal electroshock test induces tonic seizures with an electrical stimulus.
The test system of data set [2] is Mus musculus. Nature of the data set: Antiallodynic activity in mouse model of OXA-induced peripheral neuropathy assessed as mean paw withdrawal threshold at 15 mg/kg, ip administered after 7 days of OXA stimulation and measured after 1 hr by Von-frey method (reference value: 3.192 +/- 0.181 g). The class given is functional.
A short description of data set [3]: Protection index, ratio of TD50 for toxicity in ip dosed mouse to ED50 for anticonvulsant activity in ip dosed mouse. The class given is organism-based. As to conditions: in vivo, read-out: PI.
A short description of data set [4]: in vitro. As to conditions: mouse, microsomes.
Description: Metabolic stability in mouse microsome assessed as half life
Data set [5] can be described thus: Drug metabolism in mouse microsome assessed as formation of monohydroxylated metabolite. As to conditions: microsomes. It counts as ADME.
The nature of data set [6]: in vitro. As to conditions: mouse, microsomes. This is another data set of the same source.
Description: Metabolic stability in mouse microsome assessed as intrinsic clearance
The test system of data set [7] is Mus musculus. The experiment in a line: Anticonvulsant activity in ip dosed mouse assessed as protection against current-induced seizure by maximal electroshock seizure test. It counts as functional.
The test system of data set [8] is Mus musculus. The experiment in a line: Antiallodynic activity in mouse model of OXA-induced peripheral neuropathy assessed as mean latency time to nocifensive response at 15 mg/kg, ip administered after 3 hrs of OXA stimulation and measured after 1 hr by cold plate method (reference value: 59.76 +/- 0.16 sec). The class given is functional.
Data set [9] has as its target T1, 5-hydroxytryptamine receptor 1A (Homo sapiens, UniProt P08908).
T1 sequence (P08908 whole entry): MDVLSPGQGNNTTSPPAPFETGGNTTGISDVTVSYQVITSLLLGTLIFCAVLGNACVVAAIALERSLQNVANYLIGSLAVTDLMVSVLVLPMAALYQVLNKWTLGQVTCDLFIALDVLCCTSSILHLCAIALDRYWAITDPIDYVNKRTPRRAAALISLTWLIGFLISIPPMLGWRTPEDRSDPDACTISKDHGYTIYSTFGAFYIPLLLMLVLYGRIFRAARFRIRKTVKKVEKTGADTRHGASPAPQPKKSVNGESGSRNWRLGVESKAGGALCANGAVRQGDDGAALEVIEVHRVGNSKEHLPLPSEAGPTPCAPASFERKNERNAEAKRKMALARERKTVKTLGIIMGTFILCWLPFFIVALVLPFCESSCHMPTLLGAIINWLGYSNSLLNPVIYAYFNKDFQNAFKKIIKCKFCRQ
Nature of the data set: Binding affinity to 5-HT1A (unknown origin).

The nature of data set [10]: Toxicity in mouse assessed as lethality at 50 mg/kg, ip. It counts as organism-based. As to conditions: in vivo.
Data set [11] has as its system Mus musculus. Nature of the data set: Antiallodynic activity in mouse model of OXA-induced peripheral neuropathy assessed as mean latency time to nocifensive response at 15 mg/kg, ip administered after 7 days of OXA stimulation and measured after 1 hr by cold plate method (reference value: 57.64 +/- 1.267 sec). It counts as functional.
A short description of data set [12]: Antioxidant activity assessed as DPPH radical scavenging activity at 125 to 1000 uM by microplate method. As to conditions: dose microM 125-1000. The class given is functional.
The subject of data set [13] is Mus musculus. Nature of the data set: Antiallodynic activity in mouse model of OXA-induced peripheral neuropathy assessed as mean paw withdrawal threshold at 15 mg/kg, ip administered after 3 hrs of OXA stimulation and measured after 1 hr by Von-frey method (reference value: 3.144 +/- 0.169 g). The class given is functional.
Data set [14] in a line: Toxicity in ip dosed mouse assessed as motor impairment by rotarod test. The class given is organism-based. As to conditions: in vivo.

For orientation: ED50 means the dose that gives a 50% effect, or the effect in half of the subjects. As to `CC(C)NCC(O)COc1cccc2ccccc12` (racemic) [PROPRANOLOL], in the data set on Mus musculus [1], the 50% effective dose (ED50) amounted to 1.2 mg/kg.

A word on the half-life: it is the time in which the quantity being followed falls by half. In general, microsomal CLint refers to a measure of how fast metabolising enzymes remove a compound, apart from limits set by blood flow. A lower microsomal CLint goes with greater metabolic stability. As a reminder, the Ki is a dissociation constant, usually derived from enzyme kinetics or from competition with a known ligand. A low value points to tighter binding. In general, TD50 refers to the 50% point of the dose-response relation for the toxic effect studied. In the case of `Cc1cc(C)c(OCCCN[C@@H]2CCCC[C@H]2O)c(C)c1` (relative stereo), the Activity is on record as 1.958 g with Mus musculus [2], “Non-Toxic” in data set [10] and 1.999 g in the data set on Mus musculus [13]. Besides, the selectivity ratio in data set [3] worked out at 2.9. In the data set “in vitro [4]”, the half-life came to 27.2 min. For the same molecule, the Drug metabolism entry in data set [5] is recorded as “Metabolite_Detected”. Further, the microsomal CLint in the data set “in vitro [6]” came out at 128 µL/min/mg. Moreover, the ED50 in the data set with Mus musculus [7] amounted to 14.8 mg/kg. For the same molecule, the Time turned out to be 19.35 s in the data set on Mus musculus [8] and 7.09 s in the data set with Mus musculus [11]. In data set [9], this molecule came in with a Ki of 2370 nM. Besides, the result in [12] was inactive. The TD50 in data set [14] turned out to be 42.9 mg/kg.

For the molecule `CC(C)NC[C@@H](O)COc1cccc2ccccc12` [DEXPROPRANOLOL], the ED50 in the data set on Mus musculus [1] was 16 mg/kg.

Regarding `CC(C)NC[C@H](O)COc1cccc2ccccc12` [LEVOPROPRANOLOL], the ED50 with Mus musculus [1] was determined as 19.2 mg/kg.

In the case of `O=C1NC(=O)C(c2ccccc2)(c2ccccc2)N1` [PHENYTOIN], in data set [3], the selectivity ratio stood at 8.56.
